{"source": "patent US9873880B2", "about": "“Engineering microorganisms” (DSM NUTRITIONAL PRODUCTS AG, priority 2013, dated 2018)", "key": {"[1]": {"system": "parental strain (the wild type strain) ONC-T18", "experiment": "Zeocin sensitivity of the parental (wild type) strain, spotted colonies", "format": "cell-based, Thraustochytrium sp. ONC-T18", "conditions": "ONC-T18-GM0 agar plates, 18 g/L sea salt, spotted cells", "procedure": "(§1) A very small amount of inoculum of zeocin-resistant strains that had been transferred three times via colony passages on zeocin/ONC-T18-GM0 agar plates (as well as their parental strain or the wild type strain) was picked from colonies using a 10 μL pipette tip and re-suspended in 50 μL sterilized water in a 200 μL PCR tube. One μL of the cell suspension was spotted on ONC-T18-GM0 agar plates containing 18 g/L sea salt (15 g/L agar) and zeocin at a concentration ranging from 0 to 5000 μg/mL (Invitrogen, CA, USA). The diameters of the spotted colonies were measured on day 1, day 3, day 5, day 7, and day 8."}, "[2]": {"system": "Thraustochytrium sp. ONC-T18", "experiment": "Effects of antibiotics on the growth of ONC-T18 on ONC-T18-GM0 agar plates", "format": "cell-based", "procedure": "Thraustochytrium sp. ONC-T18 was grown on agar plates (20 g agar per liter ONC-T18-GM0). One loop of inoculum of ONC-T18 was inoculated into 50 mL of liquid ONC-T18-GM0, and the culture was incubated in a shaker incubator at 25° C. at 250 rpm for 36 hours. Half a milliliter of the culture was transferred into a 1.5 mL tube and vortexed at full speed for 30 seconds to break down cell clusters, then diluted in 50 mL sterilized water. One hundred microliters of the resulting solution was spread onto each ONC-T18-GM0 medium plate. Each plate contained one of various antibiotics at one of various concentrations. Plates were incubated at 25° C. and emergence and development of colonies were observed daily."}, "[3]": {"system": "Thraustochytrium sp. ONC-T18", "experiment": "Effects of zeocin and salinity on colony numbers and colony diameters of ONC-T18", "format": "cell-based", "conditions": "for colony numbers: 10 days; for colony numbers / colony growth rates (diameter in mm): mean of two plates", "procedure": "One hundred μL of ONC-T18 cell suspension diluted at 1:500 from a 2-day culture were spread onto ONC-T18-GM0 plates containing various concentrations of antibiotic zeocin and sea salt. Inoculated plates were incubated in a 25° C. incubator for 10 days. The numbers of the colonies on each plate were counted. […] In plates containing 8.5 g/L sea salt without zeocin, only one colony was observed. In plates containing 18 g/L sea salt without zeocin, colony numbers were similar to that of plates containing 35 g/L sea salt without zeocin. […] Therefore, for this work, 18 g/L sea salt was used to make ONC-T18-GM0 for selection of ONC-T18 transformants transformed with constructs bearing a zeocin-resistant gene expression cassette."}, "[4]": {"conditions": "cited from earlier work"}, "[5]": {"system": "wild type strains ONC-T18", "experiment": "Transgene stability assay, growth on zeocin plates after six colony passages", "format": "cell-based, Thraustochytrium sp. ONC-T18", "conditions": "zeocin 200 μg/mL media", "from_the_text": "Transgene stability is important for certain applications of genetic engineering in industrial microbial strain improvement programs where microorganisms are used in pharmaceutical or industrial processes, and where product quantity and quality are paramount. We therefore carried out transgene stability estimate assays of transformed ONC-T18 strains. As for the growth rate assays described in above, inocula of four strains of each transformation as well as their ancestor wild type strains were spotted on ONC-T18-GM0 agar plates in the absence of zeocin and incubated at 25° C. for seven days. (Each transformation had been performed using one of the five different plasmid constructs, each of which bears various zeocin-resistant gene expression cassettes driven by a combination of different promoters and terminators). Then, using the same method, strains were transferred on a new fresh ONC-T18-GM0 agar plate and incubated at 25° C. for 7 days; colony passages were carried out 6 times. Finally, strains were transferred back onto ONC-T18-GM0 agar plates either without or with zeocin at a concentration of 200 μg/mL media."}, "[6]": {"system": "wild type strain of ONC-T18", "experiment": "Zeocin as mutagenic agent on ONC-T18 agar plates", "format": "cell-based, Thraustochytrium sp. ONC-T18", "procedure": "The marine protist wild type strain of ONC-T18 was chosen as a model system to test if zeocin would be effective to induce mutagenesis in this strain. One full loop of the inocula of ONC-T18, growing in the agar plates containing ONC-T18-GM0 medium [5 g/L yeast extract, 5 g/L peptone, 10 g/L D(+)-glucose. 35 g/L artificial sea salt, 1.25 mg/L trace elements (5 g/L NaH2PO4.H2O, 3.15 g/L FeCl3.6H2O, 4.36 g/L Na2EDTA.2H2O, 0.6125 mg/L CuSO4.5H2O, 0.0597 g/L Na2MoO4.2H2O, 0.022 g/L ZnSO4.7H2O, 0.01 g/L CoCl2.6H2O, 0.18 g/L MnCl2.4H2O, 13 μg/L […], 2.7 mg/L NiSO4.6H2O, 1.84 mg/L Na3VO4 and 1.94 mg/L […]). 1.25 mg/L vitamins (1 mg/L vitamin B12, 1 mg/L biotin, 0.20 g/L thiamine HCl) and 20 g agar per liter], was inoculated into 50 mL liquid ONC-T18-GM0 medium, and incubated in a shaker incubator at 25° C. at 250 rpm for 36 hours. Half a milliliter of culture was transferred into a 1.5 mL tube and vortexed at full speed for 30 seconds, and then diluted in 50 mL sterilized water. One hundred microliters of the diluted inocula were respectively spread on the agar plates containing zeocin at various concentrations (0, 10, 30, 50, and 100 μg/mL). Plates were incubated at 25° C. incubator. The emergence and development of the colonies were observed daily. […] Under these conditions, zeocin was effective within the range of at least 10-200 μg/mL; higher concentrations may well also be effective. For example, concentrations in the range of 200-500 μg/mL or higher could work. […] Under the particular conditions utilized in the present Example, zeocin worked best at 50 μg/mL."}, "[7]": {"system": "transformed strains bearing the zeocin-resistance gene (from S. hidustanus) expression cassette", "experiment": "Zeocin sensitivity of transformed strains, spotted colonies", "format": "cell-based, Thraustochytrium sp. ONC-T18", "conditions": "18 g/L sea salt", "procedure": "as §1"}, "[8]": {"conditions": "agar plates, ONC-T18-GM0, 35 g/L artificial sea salt"}}}
{"smiles": "Cc1c(N)nc([C@H](CC(N)=O)NC[C@H](N)C(N)=O)nc1C(=O)N[C@H](C(=O)N[C@H](C)[C@@H](O)[C@H](C)C(=O)N[C@H](C(=O)NCCC1=N[C@@H](c2nc(C(=O)NCCCCN=C(N)N)cs2)CS1)[C@@H](C)O)[C@@H](O[C@@H]1O[C@@H](CO)[C@@H](O)[C@H](O)[C@@H]1O[C@H]1O[C@H](CO)[C@@H](O)[C@H](OC(N)=O)[C@@H]1O)c1cnc[nH]1", "note": "[Zeocin, zeocin]", "values": [{"measurement": "zeocin concentration on which the wild type strain grew", "setting": "[1]", "value": "≤ 30", "unit": "µg/mL"}, {"measurement": "effect on growth of ONC-T18 (in words)", "setting": "[2]", "value": "significantly inhibited the growth"}, {"measurement": "zeocin concentration that completely inhibited growth of ONC-T18", "setting": "[3]; ONC-T18-GM0 agar plates containing 18 g/L sea salt", "value": 30, "unit": "µg/mL"}, {"measurement": "zeocin concentration needed for complete inhibition of ONC-T18", "setting": "[3]; ONC-T18-GM0 agar plates containing 35 g/L sea salt", "value": 100, "unit": "µg/mL"}, {"measurement": "colony numbers", "setting": "[3]; salt 5 g/L, zeocin 10 μg/mL", "value": 0}, {"measurement": "colony growth rates (diameter in mm)", "setting": "[3]; salt 5 g/L, zeocin 10 μg/mL", "value": 0, "unit": "mm"}, {"measurement": "colony numbers", "setting": "[3]; salt 5 g/L, zeocin 30 μg/mL", "value": 0}, {"measurement": "colony growth rates (diameter in mm)", "setting": "[3]; salt 5 g/L, zeocin 30 μg/mL", "value": 0, "unit": "mm"}, {"measurement": "colony numbers", "setting": "[3]; salt 5 g/L, zeocin 50 μg/mL", "value": 0}, {"measurement": "colony growth rates (diameter in mm)", "setting": "[3]; salt 5 g/L, zeocin 50 μg/mL", "value": 0, "unit": "mm"}, {"measurement": "colony numbers", "setting": "[3]; salt 5 g/L, zeocin 100 μg/mL", "value": 0}, {"measurement": "colony growth rates (diameter in mm)", "setting": "[3]; salt 5 g/L, zeocin 100 μg/mL", "value": 0, "unit": "mm"}, {"measurement": "colony numbers", "setting": "[3]; salt 8.5 g/L, zeocin 10 μg/mL", "value": 0}, {"measurement": "colony growth rates (diameter in mm)", "setting": "[3]; salt 8.5 g/L, zeocin 10 μg/mL", "value": 0, "unit": "mm"}, {"measurement": "colony numbers", "setting": "[3]; salt 8.5 g/L, zeocin 30 μg/mL", "value": 0}, {"measurement": "colony growth rates (diameter in mm)", "setting": "[3]; salt 8.5 g/L, zeocin 30 μg/mL", "value": 0, "unit": "mm"}, {"measurement": "colony numbers", "setting": "[3]; salt 8.5 g/L, zeocin 50 μg/mL", "value": 0}, {"measurement": "colony growth rates (diameter in mm)", "setting": "[3]; salt 8.5 g/L, zeocin 50 μg/mL", "value": 0, "unit": "mm"}, {"measurement": "colony numbers", "setting": "[3]; salt 8.5 g/L, zeocin 100 μg/mL", "value": 0}, {"measurement": "colony growth rates (diameter in mm)", "setting": "[3]; salt 8.5 g/L, zeocin 100 μg/mL", "value": 0, "unit": "mm"}, {"measurement": "colony numbers", "setting": "[3]; salt 18 g/L, zeocin 10 μg/mL", "value": 11}, {"measurement": "colony growth rates (diameter in mm)", "setting": "[3]; salt 18 g/L, zeocin 10 μg/mL", "value": 4.1, "unit": "mm"}, {"measurement": "colony numbers", "setting": "[3]; salt 18 g/L, zeocin 30 μg/mL", "value": 0}, {"measurement": "colony growth rates (diameter in mm)", "setting": "[3]; salt 18 g/L, zeocin 30 μg/mL", "value": 0, "unit": "mm"}, {"measurement": "colony numbers", "setting": "[3]; salt 18 g/L, zeocin 50 μg/mL", "value": 0}, {"measurement": "colony growth rates (diameter in mm)", "setting": "[3]; salt 18 g/L, zeocin 50 μg/mL", "value": 0, "unit": "mm"}, {"measurement": "colony numbers", "setting": "[3]; salt 18 g/L, zeocin 100 μg/mL", "value": 0}, {"measurement": "colony growth rates (diameter in mm)", "setting": "[3]; salt 18 g/L, zeocin 100 μg/mL", "value": 0, "unit": "mm"}, {"measurement": "colony numbers", "setting": "[3]; salt 35 g/L, zeocin 10 μg/mL", "value": 22.5}, {"measurement": "colony growth rates (diameter in mm)", "setting": "[3]; salt 35 g/L, zeocin 10 μg/mL", "value": 4.1, "unit": "mm"}, {"measurement": "colony numbers", "setting": "[3]; salt 35 g/L, zeocin 30 μg/mL", "value": 11}, {"measurement": "colony growth rates (diameter in mm)", "setting": "[3]; salt 35 g/L, zeocin 30 μg/mL", "value": 1.9, "unit": "mm"}, {"measurement": "colony numbers", "setting": "[3]; salt 35 g/L, zeocin 50 μg/mL", "value": 5}, {"measurement": "colony growth rates (diameter in mm)", "setting": "[3]; salt 35 g/L, zeocin 50 μg/mL", "value": 0.6, "unit": "mm"}, {"measurement": "colony numbers", "setting": "[3]; salt 35 g/L, zeocin 100 μg/mL", "value": 0}, {"measurement": "colony growth rates (diameter in mm)", "setting": "[3]; salt 35 g/L, zeocin 100 μg/mL", "value": 0, "unit": "mm"}, {"measurement": "stability at high salt concentrations", "setting": "[4]; Invitrogen", "value": "unstable"}, {"measurement": "water solubility", "setting": "[4]; InvivoGen", "value": "water soluble"}, {"measurement": "growth of wild type strains", "setting": "[5]", "value": "none of the wild type strains were able to grow"}, {"measurement": "concentration at which zeocin worked best as mutagen", "setting": "[6]; [8]", "value": 50, "unit": "µg/mL"}, {"measurement": "concentration range in which zeocin was effective as mutagen", "setting": "[6]; [8]", "value": "10 to 200", "unit": "µg/mL"}, {"measurement": "colonies seen per plate", "setting": "[6]; zeocin 50 μg/mL, six days post inoculation", "value": "Only a few of colonies"}, {"measurement": "sensitivity of ONC-T18 cells to zeocin", "setting": "[6]; zeocin 100 μg/mL", "value": "highly sensitive"}, {"measurement": "growth of transformed strains", "setting": "[7]; zeocin 5000 μg/mL", "value": "most strains grew remarkably slower"}, {"measurement": "growth of transformed strains", "setting": "[7]; zeocin 30 to 1000 μg/mL", "value": "grew well"}]}
